Assays:
guanylyl cyclase type C = guanylyl cyclase type C (Homo sapiens, UniProt P25092); conditions: literature comparator; read-out: potency (IC50); cited from earlier work
[1] = biological target: guanylyl cyclase type C (GC-C) (Homo sapiens, UniProt P25092); assay: STa-induced activation of GC-C in T84 cells (cyclic GMP accumulation, ELISA); type: cell-based; set-up: endogenous in cells; host or cells: T84 cells
[2] = tested on: adenylyl cyclase or guanylyl cyclase; type: cell-based; conditions: read-out: typical IC50

guanylyl cyclase type C (GC-C), sequence (P25092 24-1073): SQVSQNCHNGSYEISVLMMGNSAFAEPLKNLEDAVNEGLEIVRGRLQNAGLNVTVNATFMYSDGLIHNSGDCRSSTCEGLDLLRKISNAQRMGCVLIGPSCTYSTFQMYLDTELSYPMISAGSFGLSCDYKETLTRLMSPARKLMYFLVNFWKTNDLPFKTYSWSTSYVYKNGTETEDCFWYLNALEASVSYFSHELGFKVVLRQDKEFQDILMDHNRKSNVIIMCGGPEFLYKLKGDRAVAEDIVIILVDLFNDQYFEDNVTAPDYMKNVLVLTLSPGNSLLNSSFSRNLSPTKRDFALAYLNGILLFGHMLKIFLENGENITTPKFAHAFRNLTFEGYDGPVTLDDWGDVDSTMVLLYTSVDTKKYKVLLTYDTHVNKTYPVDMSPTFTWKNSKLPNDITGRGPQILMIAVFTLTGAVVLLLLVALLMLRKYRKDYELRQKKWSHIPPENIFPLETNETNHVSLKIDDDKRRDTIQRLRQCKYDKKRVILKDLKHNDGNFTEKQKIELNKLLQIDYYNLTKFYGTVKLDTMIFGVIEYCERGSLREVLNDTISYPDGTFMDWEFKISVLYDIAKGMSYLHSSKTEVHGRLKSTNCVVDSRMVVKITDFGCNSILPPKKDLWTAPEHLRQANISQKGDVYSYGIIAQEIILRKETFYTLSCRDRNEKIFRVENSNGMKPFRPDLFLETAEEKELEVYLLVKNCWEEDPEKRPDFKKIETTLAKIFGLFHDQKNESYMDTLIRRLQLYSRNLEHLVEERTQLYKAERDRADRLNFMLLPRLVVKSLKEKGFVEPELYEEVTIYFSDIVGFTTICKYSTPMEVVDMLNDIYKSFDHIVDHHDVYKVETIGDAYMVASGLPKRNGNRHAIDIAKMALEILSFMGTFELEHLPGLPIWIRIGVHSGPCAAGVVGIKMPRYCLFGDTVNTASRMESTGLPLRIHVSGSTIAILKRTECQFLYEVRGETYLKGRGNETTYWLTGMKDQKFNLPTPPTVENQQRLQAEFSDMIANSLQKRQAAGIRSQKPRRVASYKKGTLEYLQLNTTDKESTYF
guanylyl cyclase type C, sequence (P25092 24-1073): as above

SMILES: Nc1nc(Cl)nc2c1ncn2[C@@H]1O[C@H](CO)[C@@H](O)[C@H]1O [2-chloroadenosine]
- IC50 (guanylyl cyclase type C): ~50 µM

SMILES: Cn1c2c(c(=O)n(C)c1=O)C(c1ccc(O)c(O)c1)C1C(=O)c3ccccc3C1=N2 (centres unmarked) [IIIa]
- inhibition of STa-induced activation of GC-C (FIG. 2) [1]: inhibition

SMILES: Cn1c2c(c(=O)n(C)c1=O)C(c1ccc(O)c(O)c1)C1=C(N2)c2ccccc2C1=O (centres unmarked) [IIIb]
- inhibition of STa-induced activation of GC-C (FIG. 2) [1]: inhibition

SMILES: COc1cc(C2C3=C(Nc4c2c(=O)n(C)c(=O)n4C)c2ccccc2C3=O)ccc1O (centres unmarked) [IVb]
- inhibition of STa-induced activation of GC-C (FIG. 2) [1]: inhibition

SMILES: CC(C)C(=O)N1C2=C(C(=O)c3ccccc32)C(c2ccc(Cl)cc2)c2c1n(C)c(=O)n(C)c2=O (centres unmarked) [VII]
- inhibition of STa-induced activation of GC-C (FIG. 2) [1]: inhibition

SMILES: CCCC(=O)N1C2=C(C(=O)c3ccccc32)C(c2ccc(Cl)cc2)c2c1n(C)c(=O)n(C)c2=O (centres unmarked) [VI]
- inhibition of STa-induced activation of GC-C (FIG. 2) [1]: inhibition

SMILES: CCOc1cc(C2C3=C(Nc4c2c(=O)n(C)c(=O)n4C)c2ccccc2C3=O)ccc1O (centres unmarked) [Vb]
- inhibition of STa-induced activation of GC-C (FIG. 2) [1]: inhibition

SMILES: Cn1c2c(c(=O)n(C)c1=O)C(c1cccc(Br)c1)C1C(=O)c3ccccc3C1=N2 (centres unmarked) [compound IIa, 5-(3-bromophenyl)-1,3-dimethyl-5,11-dihydro-1H-indeno[2′,1′:5,6]pyrido[2,3-d]pyrimidine-2,4,6-trione]
- IC50 [2]: ~5 µM
- inhibition of STa-induced activation of GC-C (FIG. 2) [1]: inhibition
- inhibition at 50 µM ([1]; 100 nM STa, 50 μM compound): 87.1%
- level of cyclic GMP ([1]; 100 nM STa, 50 μM compound, vehicle 124±10, basal 6±2): 21±4 pmol/mg protein
